This is an account of results in paper PMC3433414, “Oral Administration of the Pimelic Diphenylamide HDAC Inhibitor HDACi 4b Is Unsuitable for Chronic Inhibition of HDAC Activity in the CNS In Vivo” (PLoS ONE, 2012).

pIC50: −log10 of the molar value. Read-outs that look alike come from different tables or passages of the source.

Series [1] in a line: Plasma stability. The settings on record: fresh mouse plasma, 5 µM; for half-life at 5 µM: pooled mouse plasma, duplicates. It is filed as in vitro ADME, mouse. Here is the method:
Incubations of test compound (5 µM initial concentration, n = 2) were carried out with pooled mouse plasma or BSA (45 mg/mL in 0.1 M phosphate buffered saline). The incubations were performed at 37°C. Samples (50 µL) were obtained from the incubation at 0, 10, 30, 120, 240, 360 and 1440 min, and added to 150 µL of acetonitrile containing carbamazepine as analytical internal standard to terminate the reaction. Samples were centrifuged and the supernatant fractions analysed by LC-MS/MS.
For half-life determinations, the instrument responses (peak areas) normalized for internal standard response, were referenced to the zero time-point samples (as 100%) in order to determine the percentage of compound remaining. Ln plots of the % remaining, for each compound, were used to determine the half-life for the plasma incubations. Half-life values were calculated from the relationship:-. [drawing 1] Where λ was the slope of the natural logarithmic (Ln) concentration vs time curve.
When quantification was required, calibration standards for parent compound and metabolites were prepared in control plasma and extracted and analysed as described for the study samples. Quantification of parent compound or metabolite was by extrapolation from the calibration line.

Series [2] deals with Class IIa/HDAC8 HDACs. The series is described as follows: Cellular HDAC assay, Boc_Lys_TFA substrate, Jurkat E6.1 cells. The settings on record: up to 50 µM. It is filed as cell-based. The method, then: Briefly, Jurkat E6.1 cells (obtained from the European Collection of Cell Cultures (ECACC)) were plated into 384 well plates at 75,000 cells/well in cellular assay buffer (RPMI without phenol red, 0.1% Fetal Bovine Serum, 10 mM HEPES, 1 mM Sodium Pyruvate). Compounds of interest were diluted in assay buffer (16-point concentration curve, 1% final DMSO) and were added to wells - unless stated otherwise in the results section - for a 2 h preincubation at 37°C prior to the addition of either 100 µM Boc_Lys_TFA or Boc_Lys_Ac. Cells were incubated for a further 3 h at 37°C, followed by the addition of a trypsin (1 mg/ml) and reference compound (Compound 26 or TSA) stop-step overnight to terminate the reaction and lyse the cells. Fluorescent counts were read the following morning on the Perkin Elmer EnVision. Z’ was 0.8 for both assays, with S:B of 19 for Boc_Lys_Ac assay, and 7 for Boc_Lys_TFA assay.
Each compound was tested in duplicate in concentration-response format on 3 separate days. For both biochemical and cellular assays, data is presented as % inhibition from maximal activity (maximal fluorescence response), which was defined as the fluorescence read in the presence of 1% DMSO, with 100% inhibition defined as the fluorescence read in the presence of substantial excess of the respective reference compounds (5 µM TSA, 50 µM Compound 26 depending on target). […]

In series [3] the test system is endogenous Class I HDACs/HDAC6. Briefly: Cellular HDAC assay, Boc_Lys_Ac substrate, Jurkat E6.1 cells. Type of series: cell-based. The method, then:
Briefly, Jurkat E6.1 cells (obtained from the European Collection of Cell Cultures (ECACC)) were plated into 384 well plates at 75,000 cells/well in cellular assay buffer (RPMI without phenol red, 0.1% Fetal Bovine Serum, 10 mM HEPES, 1 mM Sodium Pyruvate). […] Fluorescent counts were read the following morning on the Perkin Elmer EnVision.
Each compound was tested in duplicate in concentration-response format on 3 separate days. […] A full dose response of reference compound was always included alongside the profiling, to ensure that assay parameters remained within acceptable limits.

The nature of series [4]: Permeability and efflux in Caco2 monolayers. It is filed as in vitro ADME. The settings on record: human. Here is the method:
Caco-2 cells (obtained from ECACC) were used after a 21-day cell culture period in 24-well Transwell plates (seeding density of 2×10^5 cells/well). Test compounds (10 µM) were dissolved in Hanks’ Balanced Salt Solution (HBSS) containing 25 mM HEPES (pH 7.4) and added to either the apical or basolateral chambers of a Transwell plate assembly. Duplicate wells were prepared per assay condition. Lucifer Yellow was added to the apical buffer in all wells to assess integrity of the cell layers by monitoring Lucifer Yellow permeation. As Lucifer Yellow (LY) cannot freely permeate lipophilic barriers, a high degree of LY transport indicates poor integrity of the cell layer.
After 1 hr incubation at 37°C, aliquots were taken from the acceptor chamber of each Transwell and added to acetonitrile containing analytical internal standard (carbamazepine) in a 96 well plate. Concentrations of test compound in the samples were measured by high performance liquid-chromatography/mass spectroscopy (LC-MS/MS).
Apparent permeability (Papp) values were calculated from the relationship: [drawing 4] […]
Acceptor = Chamber of Transwell in to which permeation of compound is measured: basal for A>B experiments and apical for B>A experiments.
The Efflux ratios, as an indication of active efflux from the apical cell surface, were calculated using the ratio of Papp B>A/Papp A>B.

Broadly, the half-life is the time in which the quantity being followed falls by half. A lower half-life goes with fast loss. For orientation: pIC50 means −log10 of the IC50, conventionally taken in molar units. The Papp A→B is how fast a substance crosses the layer from the apical side. Lower therefore signals slow passage.

In the case of `Nc1ccccc1NC(=O)CCCCCC(=O)Nc1ccccc1` [Compound 4b], the “time to complete conversion to amide hydrolysis products (M1 and M2)” value in series [1] is not above 6 h. The compound also had a half-life at 5 µM in series [1] of 1.9 h. Also, in series [2], the “cellular inhibition, Class IIa/HDAC8 substrate” value is “no inhibition”. The negative-log IC50 (pIC50) in series [3] (24 h pre-incubation with cells (maximal), read-out: cellular IC50, Boc_Lys_Ac substrate ('Class I' HDAC inhibition)) was 5.74; in series [3] (Jurkat E6.1, standard protocol, total incubation time 5 h, read-out: cellular IC50, Boc_Lys_Ac substrate (Class I inhibition)), 5.28; in series [3] (dilution prepared 21 h previously in DMSO or aqueous buffer, no pre-incubation with cells, read-out: cellular IC50, Boc_Lys_Ac substrate), 4.82; in series [3] (freshly prepared compound dilution, no pre-incubation with cells, read-out: cellular IC50, Boc_Lys_Ac substrate), 4.80; in series [3] (no pre-incubation with cells, read-out: cellular IC50, Boc_Lys_Ac substrate), 4.80. The compound further showed a Papp A→B at 1 h, 10 µM in series [4] (Caco-2, pH 7.4) of 15.6 ×10⁻⁶ cm/s. In addition, the efflux ratio at 1 h, 10 µM in series [4] (Caco-2, pH 7.4, read-out: effective efflux ratio) was found to be 3.5.

In series [1], `O=C(CCCCCc1nc2ccccc2[nH]1)Nc1ccccc1` [Compound C1, 6-(1-H-benzo[d]imidazol-2-yl)-N-phenylhexanamide] showed a half-life at 5 µM of 3.6 h. For the same compound, the “activity in the Class I cellular HDAC (Boc_Lys_Ac) assay” value in series [3] (up to 50 µM, 5 h incubation) was “no activity”.
